Data taken from patent US6946483B2, “Aminoalkenylbenzoyl-benzofuran or benzothiophene, method for preparing same and compositions containing same” (Sanofi-Aventis, priority 2000, dated 2005).
Where a name gives a salt, the structure may show the parent alone.

Compound | melting point [°C]
CCCCc1oc2ccc(C(=O)OC(C)C)cc2c1C(=O)c1cc(C)c(/C=C/CN(CCCC)CCCC)c(C)c1 (as salt: oxalate) [Example 44] | 110 to 115
CCCCc1oc2ccc(C(=O)OC)cc2c1C(=O)c1ccc(C#CCN2CCCCC2)cc1 (as salt: hydrochloride) [Example 34] | 153 to 154
CCCCNCC#Cc1ccc(C(=O)c2c(CCCC)oc3ccc(C(=O)OC(C)C)cc23)cc1 (as salt: hydrochloride) [Example 36] | 166 to 167
CCCCc1oc2ccc(C(=O)OC(C)C)cc2c1C(=O)c1cc(Cl)c(/C=C/CN(CCCC)CCCC)c(Cl)c1 (as salt: oxalate) [Example 51] | 91 to 93
CCCCc1oc2c(C(=O)OC(C)C)cccc2c1C(=O)c1ccc(/C=C/CN(CCCC)CCCC)cc1 (as salt: oxalate) [Example 52] | 120
CCCCc1oc2cc(C)c(C(=O)OC(C)C)cc2c1C(=O)c1ccc(/C=C\CN(CCCC)CCCC)cc1.Cl | 129

Results, then the compound that gave them:

melting point [°C] | Compound
189 to 191 | CCCCN(C/C=C/c1ccc(C(=O)c2c(C)oc3ccc(C(=O)OC(C)C)cc23)cc1)CCCC (as salt: hydrochloride) [Example 50]
171 to 173 | CCCCN(C/C=C/c1ccc(C(=O)c2c(C3CCCCC3)oc3ccc(C(=O)OC(C)C)cc23)cc1)CCCC (as salt: hydrochloride) [Example 43]
147 to 150 | CCCCN(C/C=C/c1ccc(C(=O)c2c(CC(C)C)oc3ccc(C(=O)OC(C)C)cc23)cc1)CCCC (as salt: hydrochloride) [Example 40]
110 to 114 | CCCCc1oc2cc(C(=O)OC(C)C)ccc2c1C(=O)c1ccc(/C=C/CN(CCCC)CCCC)cc1 (as salt: hydrochloride) [Example 38]
112 | CCCCc1oc2ccc(C(=O)OC(C)C)cc2c1C(=O)c1ccc(/C=C/CN(CCCC)CCCC)cc1 (as salt: oxalate) [Example 39]
